This test addresses T1, Recombinant human KIF18A (1-467 His-tagged) protein (Homo sapiens, UniProt Q8NI77).
T1 construct: Recombinant human KIF18A (1-467 His-tagged) protein; His; made in house
Kind of test: KIF18A Enzyme Assay: microtubule-stimulated ATPase activity (ADP-Glo). It counts as biochemical. The following applies: 30 nM KIF18A, 30 μg/mL pig microtubules, 75 μM ATP, ADP-Glo luminescence. The source says:
KIF18A Enzyme Assay: Microtubule-stimulated ATPase activity assay is used to measure KIF18A enzyme activity after treatment with compound. Compounds were 2-fold serially diluted in DMSO (Sigma Inc) over 22-point concentration range. Recombinant human KIF18A (1-467 His-tagged) protein was expressed using a baculovirus system and purified by affinity chromatography by Amgen Inc. Concentrations of KIF18A protein, microtubules (MT), and ATP in the reaction were optimized for standardized homogenous enzyme assay using ADP-Glo™ Kinase/ATPase Assay Kit (Promega Inc). The assay measures ADP formed from the ATPase reaction. Prepare reaction buffer [(15 mM Tris, pH 7.5 (Teknova Inc), 10 mM MgCl2 (IT Baker Inc), 0.01% Pluronic F-68 (Life Technologies Inc), 1 μM Taxol (Cytoskeleton Inc), and 30 μg/mL pig microtubules (Cytoskeleton Inc)]. Add compound and KIF18A protein (30 nM) to prepared reaction buffer and incubated for 15 minutes at room temperature, next add ATP (at Kin, 75 μM) to the reaction mixture and incubated for an additional 15 minutes at room temperature. Mix 5 μl of ADP-Glo™ Reagent and 2.5 μl of the reaction mixture and incubate for 40 minutes at room temperature. Add 10 μl ADP-Glo™ Detection Reagent and incubate for 40 minutes at room temperature. Read luminescence using EnVision microplate reader with ultra-luminescence module (Perkin Elmer Inc). Concentration-response curve-fitting and IC50 determination was performed using Genedata Screener Software (Standard 15.0.1, Genedata Inc) with a four-parameter logistic regression fit model.
Table A provides data for compounds exemplified in the present application and priority document thereof, as representative compounds of the present invention, as follows: chemical name (as named by either ACD software or ChemDraw (Professional 15.0)) and biological data (IC50 in μM). Ex. # refers to Example No.
(In general: ADP-Glo turns the ADP formed in a reaction into a luminescent signal.)
T1 sequence (Q8NI77 1-467): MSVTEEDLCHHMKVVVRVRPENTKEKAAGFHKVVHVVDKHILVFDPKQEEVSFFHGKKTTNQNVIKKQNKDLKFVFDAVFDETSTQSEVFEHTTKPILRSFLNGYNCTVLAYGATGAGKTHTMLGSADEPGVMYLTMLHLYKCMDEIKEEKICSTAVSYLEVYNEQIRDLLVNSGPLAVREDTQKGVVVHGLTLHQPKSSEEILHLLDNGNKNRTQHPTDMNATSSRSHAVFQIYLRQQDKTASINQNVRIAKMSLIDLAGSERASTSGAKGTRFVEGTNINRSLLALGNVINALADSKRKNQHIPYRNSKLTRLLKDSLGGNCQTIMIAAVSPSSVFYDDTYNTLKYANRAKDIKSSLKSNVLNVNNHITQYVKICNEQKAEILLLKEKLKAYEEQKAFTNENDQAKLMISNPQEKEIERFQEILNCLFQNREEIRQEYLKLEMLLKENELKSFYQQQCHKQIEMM
T1 sequence (P02550 whole entry partner): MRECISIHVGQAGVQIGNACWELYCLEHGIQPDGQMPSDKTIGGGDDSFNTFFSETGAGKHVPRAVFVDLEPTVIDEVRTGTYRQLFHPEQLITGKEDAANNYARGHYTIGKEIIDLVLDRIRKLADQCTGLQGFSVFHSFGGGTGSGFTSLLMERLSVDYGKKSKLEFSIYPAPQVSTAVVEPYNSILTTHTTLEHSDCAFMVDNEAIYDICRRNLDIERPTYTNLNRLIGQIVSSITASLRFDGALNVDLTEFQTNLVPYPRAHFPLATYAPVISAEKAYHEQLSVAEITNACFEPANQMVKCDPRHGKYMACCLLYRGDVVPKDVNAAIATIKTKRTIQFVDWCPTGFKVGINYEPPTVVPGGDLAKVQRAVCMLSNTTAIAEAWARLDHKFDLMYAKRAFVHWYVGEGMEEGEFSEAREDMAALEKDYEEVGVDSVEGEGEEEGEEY
T1 sequence (P02554 whole entry partner): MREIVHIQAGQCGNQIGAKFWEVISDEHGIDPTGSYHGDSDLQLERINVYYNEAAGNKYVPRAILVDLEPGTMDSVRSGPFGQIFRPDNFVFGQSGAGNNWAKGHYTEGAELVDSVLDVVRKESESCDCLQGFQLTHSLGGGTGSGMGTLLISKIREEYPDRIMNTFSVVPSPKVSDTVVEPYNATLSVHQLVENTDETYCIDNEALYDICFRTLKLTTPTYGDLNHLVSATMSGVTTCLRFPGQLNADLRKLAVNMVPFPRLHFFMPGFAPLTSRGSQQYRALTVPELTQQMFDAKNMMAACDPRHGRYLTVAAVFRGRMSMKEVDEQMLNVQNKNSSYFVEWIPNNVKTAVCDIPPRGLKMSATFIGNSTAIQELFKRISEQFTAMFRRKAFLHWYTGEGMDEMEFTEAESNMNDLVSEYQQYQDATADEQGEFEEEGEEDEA
Broadly, the IC50 is the concentration that gives 50% inhibition. Regarding `CN1CCN(c2cccc(NC(=O)c3ccc(NC(C)(C)CO)nc3N3CCC4(CC3)CC4)n2)CC1` [Example 133, 2-(6-azaspiro[2.5]oct-6-yl)-6-((2-hydroxy-1,1-dimethylethyl)amino)-N-(6-(4-methyl-1-piperazinyl)-2-pyridinyl)-3-pyridinecarboxamide], the IC50 was determined as 604 nM.
Then `CC(C)(CO)Nc1ccc(C(=O)Nc2cccc(N3CCCC3=O)n2)c(N2CCC3(CC2)CC3)n1` [Example 134, 2-(6-azaspiro[2.5]oct-6-yl)-6-((2-hydroxy-1,1-dimethylethyl)amino)-N-(6-(2-oxo-1-pyrrolidinyl)-2-pyridinyl)-3-pyridinecarboxamide], with 204 nM; and `CC1(C)CC(=O)N(c2cccc(NC(=O)c3ccc(NC(C)(C)CO)nc3N3CCC4(CC3)CC4)n2)C1` [Example 135, 2-(6-azaspiro[2.5]oct-6-yl)-N-(6-(4,4-dimethyl-2-oxo-1-pyrrolidinyl)-2-pyridinyl)-6-((2-hydroxy-1,1-dimethylethyl)amino)-3-pyridinecarboxamide], with 110 nM.
Then `CC(C)(CO)Nc1ccc(C(=O)Nc2cccc(N3C[C@H]4C[C@H]4C3)n2)c(N2CCC3(CC2)CC3)n1` [Example 136, N-(6-((1R,5S)-3-azabicyclo[3.1.0]hex-3-yl)-2-pyridinyl)-2-(6-azaspiro[2.5]oct-6-yl)-6-((2-hydroxy-1,1-dimethylethyl)amino)-3-pyridinecarboxamide], with 71.9 nM; and `C[C@@H]1CN(c2cccc(NC(=O)c3ccc(NC(C)(C)CO)nc3N3CCC4(CC3)CC4)n2)CCO1` [Example 137, 2-(6-azaspiro[2.5]oct-6-yl)-6-((2-hydroxy-1,1-dimethylethyl)amino)-N-(6-((2R)-2-methyl-4-morpholinyl)-2-pyridinyl)-3-pyridinecarboxamide], with 66.9 nM.
Then `CC(C)(CO)Nc1ccc(C(=O)Nc2cccc(C3=CCOCC3)n2)c(N2CCC3(CC2)CC3)n1` [Example 138, 2-(6-azaspiro[2.5]oct-6-yl)-N-(6-(3,6-dihydro-2H-pyran-4-yl)-2-pyridinyl)-6-((1-hydroxy-2-methyl-2-propanyl)amino)-3-pyridinecarboxamide], with 82.9 nM; and `C[C@H]1CCN(c2cccc(NC(=O)c3ccc(NC(C)(C)CO)nc3N3CCC4(CC3)CC4)n2)C1` [Example 139, 2-(6-azaspiro[2.5]oct-6-yl)-6-((1-hydroxy-2-methyl-2-propanyl)amino)-N-(6-((3S)-3-methyl-1-pyrrolidinyl)-2-pyridinyl)-3-pyridinecarboxamide], with 89.3 nM.
With `CC(O)(c1ccc(C(=O)Nc2cccc(N3CCOCC3)n2)c(N2CCC3(CC2)CC3)n1)C(F)(F)F` (stereo not drawn) [Example 140, N-(6-morpholinopyridin-2-yl)-2-(6-azaspiro[2.5]octan-6-yl)-6-(1,1,1-trifluoro-2-hydroxypropan-2-yl)nicotinamide], the half-inhibitory concentration (IC50) came out at 71.2 nM.
Then `C[C@](O)(c1ccc(C(=O)Nc2cccc(N3CCOCC3)n2)c(N2CCC3(CC2)CC3)n1)C(F)(F)F` [Example 142, 2-(6-azaspiro[2.5]oct-6-yl)-N-(6-(4-morpholinyl)-2-pyridinyl)-6-((2S)-1,1,1-trifluoro-2-hydroxy-2-propanyl)-3-pyridinecarboxamide], with 57.5 nM.
Then `CC(C)(CO)Nc1ccc(C(=O)Nc2cccc(N3CC(F)C3)n2)c(N2CCC3(CC2)CC3)n1` [Example 144, 2-(6-azaspiro[2.5]oct-6-yl)-N-(6-(3-fluoro-1-azetidinyl)-2-pyridinyl)-6-((1-hydroxy-2-methyl-2-propanyl)amino)-3-pyridinecarboxamide], with 76.5 nM; and `COC1CN(c2cccc(NC(=O)c3ccc(NC(C)(C)CO)nc3N3CCC4(CC3)CC4)n2)C1` [Example 145, 2-(6-azaspiro[2.5]oct-6-yl)-6-((1-hydroxy-2-methyl-2-propanyl)amino)-N-(6-(3-methoxy-1-azetidinyl)-2-pyridinyl)-3-pyridinecarboxamide], with 168 nM.
Then `CC(C)(CO)Nc1ccc(C(=O)Nc2cccc(C3CCOCC3)n2)c(N2CCC3(CC2)CC3)n1` [Example 146, 2-(6-azaspiro[2.5]oct-6-yl)-6-((1-hydroxy-2-methyl-2-propanyl)amino)-N-(6-(tetrahydro-2H-pyran-4-yl)-2-pyridinyl)-3-pyridinecarboxamide], with 247 nM.
For `C[C@@H]1CN(c2cccc(NC(=O)c3ccc(NC(C)(CO)CO)nc3N3CCC4(CC3)CC4)n2)CCO1` [Example 147, (R)-6-((1,3-dihydroxy-2-methylpropan-2-yl)amino)-N-(6-(2-methylmorpholino)pyridin-2-yl)-2-(6-azaspiro[2.5]octan-6-yl)nicotinamide], the IC50 was 53.4 nM.
Then `CC(CO)(CO)Nc1ccc(C(=O)Nc2cccc(N3CCOCC3)n2)c(N2CCC3(CC2)CC3)n1` [Example 148, 2-(6-azaspiro[2.5]oct-6-yl)-6-((1,3-dihydroxy-2-methyl-2-propanyl)amino)-N-(6-(4-morpholinyl)-2-pyridinyl)-3-pyridinecarboxamide], with 60.4 nM.
For the compound `CC(CO)(CO)Nc1ccc(C(=O)Nc2cccc(N3CCC(F)(F)C3)n2)c(N2CCC3(CC2)CC3)n1` [Example 149, 2-(6-azaspiro[2.5]oct-6-yl)-N-(6-(3,3-difluoro-1-pyrrolidinyl)-2-pyridinyl)-6-((1,3-dihydroxy-2-methyl-2-propanyl)amino)-3-pyridinecarboxamide], the 50% inhibitory concentration (IC50) was 59.1 nM.
Then `CC(C)(CO)Nc1ccc(C(=O)Nc2cc(Cl)cc(N3CCOCC3)n2)c(N2CCC3(CC2)CC3)n1` [Example 152, 2-(6-azaspiro[2.5]oct-6-yl)-N-(4-chloro-6-(4-morpholinyl)-2-pyridinyl)-6-((1-hydroxy-2-methyl-2-propanyl)amino)-3-pyridinecarboxamide], with 74.3 nM; and `Cc1cc(NC(=O)c2ccc(NC(C)(C)CO)nc2N2CCC3(CC2)CC3)nc(N2CCOCC2)c1` [Example 155, 2-(6-azaspiro[2.5]octan-6-yl)-6-((1-hydroxy-2-methyl-2-propanyl)amino)-N-(4-methyl-6-(4-morpholinyl)-2-pyridinyl)-3-pyridinecarboxamide], with 71 nM.
Then `CC(C)(CO)Nc1ccc(C(=O)Nc2cc(C#N)cc(N3CCOCC3)n2)c(N2CCC3(CC2)CC3)n1` [Example 156, 2-(6-azaspiro[2.5]octan-6-yl)-N-(4-cyano-6-(4-morpholinyl)-2-pyridinyl)-6-((1-hydroxy-2-methyl-2-propanyl)amino)-3-pyridinecarboxamide], with 116 nM; and `Cc1cc(NC(=O)c2ccc(NC(C)(C)CO)nc2N2CCC3(CC2)CC3)nc(S(=O)(=O)NC(C)(C)C)c1` [Example 157, 2-(6-azaspiro[2.5]octan-6-yl)-6-((1-hydroxy-2-methyl-2-propanyl)amino)-N-(4-methyl-6-((2-methyl-2-propanyl)sulfamoyl)-2-pyridinyl)-3-pyridinecarboxamide], with 206 nM.
Then `COc1cc(NC(=O)c2ccc(NC(C)(C)CO)nc2N2CCC3(CC2)CC3)nc(N2CCOCC2)c1` [Example 158, 2-(6-azaspiro[2.5]octan-6-yl)-6-((1-hydroxy-2-methyl-2-propanyl)amino)-N-(4-methoxy-6-(4-morpholinyl)-2-pyridinyl)-3-pyridinecarboxamide], with 402 nM.
Consider `CC1(O)CN(c2ccc(C(=O)Nc3cccc(S(=O)(=O)NC(C)(C)C)n3)c(N3CCC4(CC3)CC4)n2)C1` [Example 159, 2-(6-azaspiro[2.5]octan-6-yl)-6-(3-hydroxy-3-methyl-1-azetidinyl)-N-(6-((2-methyl-2-propanyl)sulfamoyl)-2-pyridinyl)-3-pyridinecarboxamide], for which the 50% inhibitory concentration (IC50) came to 169 nM.
Then `CC(C)(CO)Nc1ccc(C(=O)Nc2cc(C3CC3)cc(N3CCOCC3)n2)c(N2CCC3(CC2)CC3)n1` [Example 160, 2-(6-azaspiro[2.5]octan-6-yl)-N-(4-cyclopropyl-6-(4-morpholinyl)-2-pyridinyl)-6-((1-hydroxy-2-methyl-2-propanyl)amino)-3-pyridinecarboxamide], with 278 nM; and `CC1(C)COC(=O)N1c1cccc(NC(=O)c2ccc(N3C(=O)OCC3(C)C)nc2N2CCC3(CC2)CC3)n1` [Example 161, 2-(6-azaspiro[2.5]octan-6-yl)-6-(4,4-dimethyl-2-oxo-1,3-oxazolidin-3-yl)-N-(6-(4,4-dimethyl-2-oxo-1,3-oxazolidin-3-yl)-2-pyridinyl)-3-pyridinecarboxamide], with 2190 nM; and `CC(C)(CO)Nc1cccc(NC(=O)c2ccc(NC(C)(C)CO)nc2N2CCC3(CC2)CC3)n1` [Example 162, 2-(6-azaspiro[2.5]octan-6-yl)-6-((1-hydroxy-2-methyl-2-propanyl)amino)-N-(6-((1-hydroxy-2-methyl-2-propanyl)amino)-2-pyridinyl)-3-pyridinecarboxamide], with 70.7 nM.

For the origin of these results see US12441736B2, “KIF18A inhibitors” (AMGEN INC., priority 2018, dated 2025).
